According to US20150258129A1, “Method for Increasing the Activity of Lysosomal Enzymes” (Mount Sinai School of Medicine of New York University, priority 1998, published 2015):
Residue numbers refer to the chain shown, from its start. One block for each compound: values may come before it.

Columns and labels:
[1] = molecular target: T1, glucocerebrosidase (β-Glu), L444P/L444P (Homo sapiens, UniProt P04062, L483P); assay: Intracellular enhancement of β-Glu activity in Gaucher fibroblasts (L444P/L444P); assay type: cell-based; settings: 10 μM, 5 days
T1 construct: endogenous in cells; host or cells: human Gaucher patient fibroblasts, genotype L444P/L444P
T1 sequence (P04062 40-536 L483P): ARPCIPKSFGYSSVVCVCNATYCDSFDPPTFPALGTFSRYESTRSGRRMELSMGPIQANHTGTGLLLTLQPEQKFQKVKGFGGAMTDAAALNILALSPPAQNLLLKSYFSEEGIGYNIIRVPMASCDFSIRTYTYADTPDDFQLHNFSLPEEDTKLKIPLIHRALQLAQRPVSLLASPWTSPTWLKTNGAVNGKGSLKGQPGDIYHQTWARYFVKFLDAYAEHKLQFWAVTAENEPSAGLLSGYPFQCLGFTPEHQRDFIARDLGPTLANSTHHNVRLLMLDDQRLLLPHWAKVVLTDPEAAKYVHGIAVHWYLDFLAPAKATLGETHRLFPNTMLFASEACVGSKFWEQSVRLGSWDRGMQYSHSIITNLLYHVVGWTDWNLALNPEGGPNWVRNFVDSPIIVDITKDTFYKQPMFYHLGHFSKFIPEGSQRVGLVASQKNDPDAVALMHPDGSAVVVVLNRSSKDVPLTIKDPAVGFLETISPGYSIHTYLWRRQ

[2] = molecular target: T2, human lysosomal α-Gal A (Homo sapiens, UniProt P06280); assay: In vitro inhibition of α-Gal A (recombinant, expressed in Sf-9 insect cells); assay type: biochemical
T2 construct: made in house; host or cells: Sf-9 insect cells, recombinant baculovirus
T2 sequence (P06280 32-429): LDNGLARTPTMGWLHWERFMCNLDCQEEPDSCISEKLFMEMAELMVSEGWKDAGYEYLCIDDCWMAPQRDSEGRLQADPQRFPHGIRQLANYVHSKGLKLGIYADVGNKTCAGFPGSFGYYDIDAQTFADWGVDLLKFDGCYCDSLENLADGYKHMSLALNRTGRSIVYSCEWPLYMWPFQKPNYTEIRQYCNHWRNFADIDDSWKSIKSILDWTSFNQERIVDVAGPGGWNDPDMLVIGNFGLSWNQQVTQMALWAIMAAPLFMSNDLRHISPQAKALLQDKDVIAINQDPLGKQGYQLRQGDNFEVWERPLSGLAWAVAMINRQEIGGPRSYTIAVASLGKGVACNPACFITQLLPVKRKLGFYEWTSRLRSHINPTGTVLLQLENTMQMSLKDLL

[3] = molecular target: coffee bean α-galactosidase (Coffea arabica, UniProt Q42656); settings: cited from earlier work
coffee bean α-galactosidase, sequence (Q42656 16-378): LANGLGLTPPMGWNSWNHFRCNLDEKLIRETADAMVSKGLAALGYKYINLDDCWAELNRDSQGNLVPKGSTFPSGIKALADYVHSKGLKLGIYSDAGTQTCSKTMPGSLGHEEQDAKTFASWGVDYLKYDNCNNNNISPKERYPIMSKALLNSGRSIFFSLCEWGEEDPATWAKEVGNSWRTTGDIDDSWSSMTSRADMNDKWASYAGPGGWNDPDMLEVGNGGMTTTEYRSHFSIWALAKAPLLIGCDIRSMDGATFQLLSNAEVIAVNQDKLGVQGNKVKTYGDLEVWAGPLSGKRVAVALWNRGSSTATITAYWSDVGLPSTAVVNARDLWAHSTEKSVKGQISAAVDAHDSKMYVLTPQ

[4] = molecular target: T3, mutant α-Gal A (R301Q) (Homo sapiens, UniProt P06280, R301Q); assay: Intracellular enhancement of α-Gal A activity in Fabry lymphoblasts; assay type: cell-based; set-up: endogenous in cells; host or cells: Epstein-Barr virus-transformed lymphoblasts from a Fabry patient (R301Q); settings: for intracellular α-Gal A activity in Fabry lymphoblasts (summary): concentration ranges of 10-1000 μM; for increase of α-Gal A enzyme activity in R301Q lymphoblasts: inhibitor at 100 μM; for α-Gal A activity in R301Q lymphoblasts with increasing concentration of calystegine compound: range 100-1000 μM, FIG. 6
T3 sequence (P06280 32-429 R301Q): T2 sequence (P06280 32-429) with R270Q
Procedure: FIG. 4B depicts results in which each inhibitor was added to the culture medium of R301Q lymphoblasts at a concentration of 100 μM. Cells were subsequently incubated for 4 days. After being washed twice with phosphate-buffered saline, the intracellular enzyme activity was determined with 4-MU-α-Gal as the substrate.
R301Q lymphoblasts were cultured with DGJ (4) ([…]), α-allo-HNJ (9) (▪), α-galacto-HNJ (10) (▴), or β-1-C-butyl-DGJ (16) (♦) at 1-1000 μM for 4 days before being collected for enzyme assay.
In FIG. 6B, R301Q lymphoblasts were cultured with calystegine B2 (18) and the results are shown therein. In FIG. 6C, R301Q lymphoblasts were cultured with N-methyl calystegine A3 (19) and the results are shown therein. In FIG. 6D R301Q lymphoblasts were cultured with N-methyl calystegine B2 (20) at 100-1000 μM for 4 days before being collected for enzyme assay and the results are shown therein.
(§1) The Epstein-Barr virus-transformed lymphoblast lines from a normal adult and a Fabry patient with R301Q mutation in α-Gal A (38) were cultured in RPMI-1640 medium (Nissui Pharmaceutical Co., Tokyo, Japan) supplemented with 10% fetal calf serum (FCS) at 37° C. under 5% CO2. Human fibroblasts from Gaucher and GM1-gangliosidosis patients were cultured in McCoy 5A medium supplemented with 10% FCS at 37° C. under 5% CO2.
(§2) Cells were cultured in the presence or absence of inhibitor for 4 days. After being washed twice with phosphate-buffered saline (PBS), the cells were harvested and homogenized in 200 μl of H2O, and 10 μl of the supernatant obtained by centrifugation at 10,000 g was incubated at 37° C. with 50 μl of the substrate solution composed by 6 mM 4-methylumbelliferyl α-D-galactoside (4-MU-α-Gal) and 90 mM N-acetylgalactosamine in 0.1 M citrate buffer (pH 4.5) for enzyme assay. One unit of intracellular enzyme activity was defined as one nmol of 4-methylumbelliferone released per hour at 37° C.

[5] = tested on: lysosomal acid β-galactosidase (β-Gal); assay: Intracellular enhancement of β-Gal activity in GM1-gangliosidosis fibroblasts; assay type: cell-based, human; settings: for β-Gal enhancement effect in fibroblasts of infant type disease (BGF-1 and BGF-6): DGJ 500 μM, 4-epi-isofagomine 50 μM; for intracellular β-Gal activity in GM1-gangliosidosis fibroblasts (summary): concentration ranges of 50-500 μM
Procedure: In FIG. 7A, GM1-gangliosidosis fibroblasts were cultured with DGJ (4) at 500 μM for 5 days before being collected for enzyme assay. In FIG. 7B, GM1-gangliosidosis fibroblasts were cultured with 4-epi-isofagomine (21) at 50 μM for 5 days before being collected for enzyme assay. Strains BGF-1 and BGF-6 were diagnosed as infantile type, and all others were juvenile or adult types.
as §1
as §2, with “for 5” for “for 4”, “with PBS,” for “with phosphate-buffered saline (PBS),”, “solution of 1” for “solution composed by 6”, “4-methylumbelliferyl β-D-galactoside (4-MU-β-Gal)” for “4-methylumbelliferyl α-D-galactoside (4-MU-α-Gal) and 90 mM N-acetylgalactosamine”

[6] = tested on: globotriaosylceramide metabolism; assay: Intracellular globotriaosylceramide metabolism with inhibitor in the medium; assay type: cell-based; settings: 20 μM in the medium
[7] = molecular target: T3, mutant α-Gal A (R301Q); settings: neutral pH; cited from earlier work
[8] = molecular target: T4, mutant (R301Q) α-Gal A (Homo sapiens, UniProt P06280, R301Q); settings: oral administration, mice overexpressing mutant (R301Q) α-Gal A; cited from earlier work
T4 construct: host or cells: transgenic mice (organs)
T4 sequence (P06280 32-429 R301Q): T2 sequence (P06280 32-429) with R270Q

[9] = molecular target: T3, mutant α-Gal A (R301Q); set-up: endogenous in cells; host or cells: Epstein-Barr virus-transformed lymphoblasts from a Fabry patient (R301Q); settings: R301Q or Q279E mutations; cited from earlier work
[10] = molecular target: human β-glucocerebrosidase (Homo sapiens, UniProt P04062); assay: In vitro inhibition of human β-glucocerebrosidase; assay type: biochemical; settings: 0.1M citrate buffer (pH 5.2), 4-MU-β-Glu as substrate
human β-glucocerebrosidase, sequence (P04062 40-536): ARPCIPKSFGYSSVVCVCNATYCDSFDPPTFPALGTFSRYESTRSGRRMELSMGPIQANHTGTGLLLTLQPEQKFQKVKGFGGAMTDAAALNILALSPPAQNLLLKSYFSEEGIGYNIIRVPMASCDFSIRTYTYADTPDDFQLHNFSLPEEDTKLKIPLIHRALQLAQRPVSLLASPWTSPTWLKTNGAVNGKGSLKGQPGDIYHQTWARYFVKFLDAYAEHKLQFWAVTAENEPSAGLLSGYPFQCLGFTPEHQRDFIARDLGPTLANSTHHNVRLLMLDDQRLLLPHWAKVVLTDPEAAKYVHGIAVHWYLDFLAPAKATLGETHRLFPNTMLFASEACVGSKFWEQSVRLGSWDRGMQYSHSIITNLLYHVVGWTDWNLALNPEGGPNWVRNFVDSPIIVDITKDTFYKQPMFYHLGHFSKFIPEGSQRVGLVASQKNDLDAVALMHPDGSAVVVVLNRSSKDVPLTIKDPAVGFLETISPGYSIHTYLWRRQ

[11] = molecular target: T5, glucocerebrosidase (β-Glu), N370S/N370S (Homo sapiens, UniProt P04062, N409S); assay: Intracellular enhancement of β-Glu activity in Gaucher fibroblasts (N370S/N370S); assay type: cell-based; settings: concentration ranges of 0.05-100 μM
T5 construct: endogenous in cells; host or cells: human Gaucher patient fibroblasts, genotype N370S/N370S
T5 sequence (P04062 40-536 N409S): T1 sequence (P04062 40-536 L483P) with N370S, P444L

Structure (SMILES): O[C@@H]1C[C@]2(O)N[C@H]1C[C@@H](O)[C@@H]2O [calystegine B1]
increase of residual β-Glu activity in Gaucher fibroblasts [1]: 76%

Structure (SMILES): CCCCC1NC(CO)C(O)C(O)C1O (stereo not drawn) [compound 16, β-1-C-Butyl-deoxygalactonojirimycin]
inhibition mode toward α-Gal A (Lineweaver-Burk plots) [2]: competitive inhibitors
Ki ([2]; p-nitrophenyl-α-D-galactopyranoside as substrate, read-out: Ki for α-Gal A, from the slope of Lineweaver-Burk plots): 16 µM
IC50 ([2]; read-out: IC30 and (Ki)*: IC50 values (inhibitor concentration giving 50% inhibition) for α-Gal A, p-nitrophenyl-α-D-galactopyranoside as substrate, pH 4.5): 24 µM
IC50 [3]: 0.71 µM
intracellular α-Gal A activity in Fabry lymphoblasts (summary) [4]: effectively increase
increase of α-Gal A enzyme activity in R301Q lymphoblasts ([4]; 4 days): 2.3 fold
enhancement of α-Gal A activity in R301Q lymphoblasts ([4]; inhibitor at 1000 μM, 4 days): 6.3 fold

β-Gal enhancement effect in fibroblasts of infant type disease (BGF-1 and BGF-6) ([5]; 5 days): not efficient
intracellular β-Gal activity in GM1-gangliosidosis fibroblasts (summary) [5]: effectively enhance
intracellular β-Gal activity elevated to, % of normal ([5]; fibroblasts of juvenile and adult types, 5 days, FIG. 7B (50 μM)): 9-53 % of normal
Structure (SMILES): OC[C@H]1CNC[C@@H](O)[C@H]1O [compound 21, 4-epi-isofagomine]

Structure (SMILES): O[C@@H]1[C@@H](O)[C@H](O)[C@]2(O)C[C@@H](O)[C@H]1N2 [calystegine C1]
increase of residual β-Glu activity in Gaucher fibroblasts [1]: 136%

Structure (SMILES): OC[C@H]1NC[C@H](O)[C@@H](O)[C@H]1O [compound 4, 1-Deoxygalactonojirimycin]
inhibition mode toward α-Gal A (Lineweaver-Burk plots) [2]: competitive inhibitors
increase of residual β-Gal activity in BGF-7 fibroblasts ([5]; 500 μM, 5 days, FIG. 7A): 27 fold
β-Gal enhancement effect in fibroblasts of infant type disease (BGF-1 and BGF-6) ([5]; 5 days): not efficient
intracellular β-Gal activity in GM1-gangliosidosis fibroblasts (summary) [5]: effectively enhance
intracellular inhibition of globotriaosylceramide metabolism [6]: did not cause intracellular inhibition
inhibition of coffee bean α-galactosidase (in words) [3]: extremely powerful inhibitor
in vitro stability of mutant α-Gal A (R301Q) [7]: effectively increased in vitro stability
enzyme activity in major organs of transgenic mice [8]: substantially elevated the enzyme activity
α-Gal A enzyme activity in R301Q lymphoblasts reached, % of normal ([4]; 100 μM, 4 days): 49 % of normal
increase of α-Gal A enzyme activity in R301Q lymphoblasts ([4]; 4 days): about 14 fold
α-Gal A activity in R301Q lymphoblasts with increasing inhibitor concentration ([4]; range 1-100 μM, FIG. 5): elevated with increasing inhibitor concentration
mutant enzyme activity in lymphoblasts from Fabry patients [9]: enhanced the mutant enzyme activity

Structure (SMILES): O[C@@H]1[C@@H](O)[C@H](O)[C@]2(O)CC[C@H]1N2 [compound 18, calystegine B2]
IC50 [10]: 0.99 µM
intracellular β-Glu activity in Gaucher fibroblasts (summary) [11]: effectively enhance
increase of residual β-Glu activity in Gaucher fibroblasts [1]: 230%
intracellular α-Gal A activity in Fabry lymphoblasts (summary) [4]: effectively increase
α-Gal A activity in R301Q lymphoblasts with increasing concentration of calystegine compound ([4]; 4 days): elevated with increasing concentration

Structure (SMILES): O[C@@H]1C[C@H]2CC[C@](O)(N2)[C@H]1O [compound 17, Calystegine A3]
IC50 [10]: 3.1 µM
intracellular β-Glu activity in Gaucher fibroblasts (summary) [11]: effectively enhance
increase of residual β-Glu activity in Gaucher fibroblasts [1]: 126%
intracellular α-Gal A activity in Fabry lymphoblasts (summary) [4]: effectively increase
α-Gal A activity in R301Q lymphoblasts with increasing concentration of calystegine compound ([4]; 4 days): elevated with increasing concentration
